In assay [1] the target is T1, PD-L1 in MDA-MR-231 cells (Homo sapiens, UniProt Q9NZQ7).
T1 construct: endogenous in cells; host or cells: MDA-MB-231
Kind of assay: Effect on expression level of PD-L1 in MDA-MR-231 cells (FACS). In kind it is cell-based. The following applies: 24 hours incubation, FACS detection of cell surface PD-L1. On the procedure:
Experimental Example 2: Using MDA-MR-231 Cells to Detect the Effect of Compounds on the Expression Level of PD-L1
The use of a triple-negative breast cancer cell line (MDA-MB-231) is an indirect method to assess PD-L1 endocytosis. PD-L1 molecules on the cell surface can be degraded by lysosomal and proteasome pathways, and small molecule inhibitors are added to induce PD-L1 endocytosis. After co-incubating small molecules with MDA-MB-231 cells for 24 hours, flow cytometry (Fluorescence-activated Cell Sorting, FACS) is used to detect the content of PD-L1 on the cell surface, which can indirectly reflect the effect of small molecule-induced PD-L1 endocytosis. Flow cytometry (FACS) is used to detect the effect of the compounds of the present disclosure on the expression level of PD-L1 in MDA-MR-231 cells.
Phosphate buffer (DPBS), 1640 medium, penicillin-streptomycin, fetal bovine serum, non-essential amino acids, 2-hydroxy-1-ethanethiol (2-ME), human interferon γ, LIVE/DEAD staining solution, staining buffer, fixation buffer, 0.25% trypsin, EDTA, anti-human PD-L1, anti-human PD-L1 isotype.
1640 complete medium preparation: 50 mL of fetal bovine serum, 5 mL of non-essential amino acids, 5 mL of penicillin-streptomycin and 0.5 mL of 2-hydroxy-1-ethanethiol were added to 439.5 mL of 1640 medium, and evenly mixed.
10 mM EDTA preparation: 1 mL of 0.5M EDTA was added to 49 mL of DPBS, and evenly mixed.
1) MDA-MB-231 cell counting and plating: The culture flask was taken out, the medium was removed and the culture flask was rinsed once with DPBS. After the culture flask was rinsed, 3 mL of 0.25% trypsin was added to the culture flask and the culture flask was placed in a 37° C. incubator for 1.5 min. The culture flask was taken out, 9 mL of 1640 complete medium was added to stop the reaction, the cells was transferred to a 50 mL centrifuge tube, and centrifuged at 1000 rpm for 5 min at 37° C. An appropriate volume of medium was added to re-suspend the cells according to the number of cells, and the number of cells was counted with a cell counter. The cell concentration was adjusted to 5×10^5 cells/mL with medium. Planking: A volume of 200 μL of cell suspension was added to each well of a 96-well plate, ensure that the number of cells in each well was 1×10^5. The cells were incubated overnight in an incubator. 2) Drug incubation: 100-fold dilution of compounds were prepared, and the drug was subjected to a 5-fold gradient dilution. 2 μL of each 100-fold dilution of compounds were added to each well. The cells were incubated in an incubator at 37° C. for 24 hours. 3) PD-L1 cell staining and FACS detection: the culture plate was taken out and the supernatant medium was discarded. The cells were washed once with 200 μL 1×PBS. 100 μL of EDTA (final concentration of 10 mM) was added to the cell suspension, and the cell suspension was treated at 37° C. for 10 min. Then after the cell suspension was centrifuged at 1500 rpm for 5 min, the cell suspension was washed once with 200 μL of staining solution. Staining: anti-human PD-L1 (2 μL per well) and LIVE/DEAD staining solution (1:1000) were diluted in staining solution, 50 μL of the staining solution was added to each well, and the staining was conducted at 4° C. for 30 min. Then the solution was washed twice with 200 μL of staining solution. Fixation: 100 μL of fixing solution was added to each well, the fixation was conducted at 4° C. for 15 min. The solution was then washed twice with 200 μL of staining solution, and 150 μL of solution was added to re-suspend the cells, followed by FACS detection.
Table 2 provides the effects of the compounds of the examples of the present disclosure on the expression level of PD-L1 in MDA-MR-231 cells.

The target of another assay is PD1/PD-L1 (Homo sapiens, UniProt Q9NZQ7). Briefly: NFAT activity test (TCR Activitor/PD-L1 CHO cells with PD-1/NFAT Reporter-Jurkat cells). In kind it is cell-based. Details: host or cells: TCR Activitor/PD-L1 CHO cells; PD-1/NFAT Reporter-Jurkat cells. The note with it: TCR Activitor/PD-L1 CHO cells + PD-1/NFAT Reporter-Jurkat cells, 5 hours, luciferase; for IC50: read-out: IC50, inhibitory activity on PD1/PD-L1 binding (NFAT activity test). An excerpt:
Experimental Example 3: NFAT Activity Test
The engineered T cell expresses PD-1 molecules and T cell receptor (TCR) on the surface, which can activate the NFAT signaling pathway of T cells after co-culturing with engineered antigen presenting cells (APCs). Expression of PD-L1 molecules on APCs can effectively attenuate the NFAT signaling pathway in T cells. PD-L1 inhibitors can be used effectively block the PD-1/PD-L1 regulatory mechanism, thereby reversing the weakened NFAT signaling pathway. After being pretreated with APC, the small molecule is co-cultured with T cells, then the expression of luciferase was detected to indirectly reflect the activation of the NFAT pathway in T cells.
The PD1/PD-L1 NFAT detection kit was purchased from BPS Biosciences. Birght-Glo reagent was purchased from Promega. Nivo multi-label analyzer (PerkinElmer).
The TCR Activitor/PD-L1 CHO cells with a growth confluence of 80% were plated into the plate at 35,000 cells per well and placed in a 37° C. cell culture incubator overnight; the compounds to be tested were diluted 5-fold to the 8th concentration, from 20 μM to 0.25 nM, and the DMSO concentration was 2%, a double-well experiment was set up. The TCR Activitor/PD-L1 CHO cell supernatant was discarded, 50 μl of compound working solution was added to each well, incubated at 37° C. for 30 minutes; after the incubation was completed, 50 μL of PD-1/NFAT Reporter-Jurkat cell suspension with a concentration of 4*10^5 cells/mL was added to each well, incubated at 37° C. for 5 hours. After the incubation was completed, 100 μL Bright-Glo was added to each well, and after mixing, the chemiluminescence signal was detected by a Nivo multi-label analyzer.
Using the equation (sample−Min)/(Max−Min)×100% to convert the raw data into inhibition rate, and the IC50 value can be obtained by curve fitting with four parameters (obtained from log(inhibitor) vs. response—Variable slope mode in GraphPad Prism). Table 3 provides the inhibitory activity of the compounds of the examples of the present disclosure on PD1/PD-L1 binding.

PD1/PD-L1, sequence (Q9NZQ7 19-290): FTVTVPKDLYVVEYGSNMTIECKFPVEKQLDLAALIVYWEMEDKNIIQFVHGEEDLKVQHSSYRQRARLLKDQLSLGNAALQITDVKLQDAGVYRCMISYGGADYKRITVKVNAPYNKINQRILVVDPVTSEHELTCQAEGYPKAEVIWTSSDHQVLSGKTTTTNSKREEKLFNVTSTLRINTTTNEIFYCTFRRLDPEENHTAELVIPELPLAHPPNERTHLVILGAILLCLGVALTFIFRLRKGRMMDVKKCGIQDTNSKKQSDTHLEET
T1 sequence (Q9NZQ7 19-290): as above

`COc1nc(-c2cccc(-c3cccc(NC(=O)c4cc(C)c5c(n4)CN(C(C)CO)CC5)c3Cl)c2Cl)cnc1CN1CC(O)C1` (stereo not drawn) [Compound 27]: the IC50 was found to be 0.0146 µM in assay [1] and 0.0289 µM at PD1/PD-L1. For the same compound, at PD1/PD-L1, the “Maximum effect (induction fold)” value is 3.48 induction fold.
On the same counts, the results for `COc1nc(-c2cccc(-c3cccc(NC(=O)c4cc(C)c5c(n4)CN(CC(O)CO)CC5)c3Cl)c2Cl)cnc1CN1CC(O)C1` (stereo not drawn) [Compound 30] are 0.0105 µM, 0.0266 µM and 4.80 induction fold.
For the compound `COc1nc(-c2cccc(-c3cccc(NC(=O)c4cc(C)c5c(n4)CN(CCO)CC5)c3Cl)c2Cl)cnc1CNCCO` [Compound 31], the IC50 in assay [1] amounted to 0.00858 µM. Also, at PD1/PD-L1, the “Maximum effect (induction fold)” value was found to be 4.12 induction fold and the IC50 turned out to be 0.0226 µM.
For `COc1nc(-c2cccc(-c3cccc(NC(=O)c4cc(C)c5c(n4)CN(CCO)CC5)c3Cl)c2Cl)cnc1CN1CCC2(CNC(=O)C2)C1` (stereo not drawn) [Compound 32] the same measures were 0.00553 µM, 4.93 induction fold and 0.0522 µM.
`COc1nc(-c2cccc(-c3cccc(NC(=O)c4cc(C)c5c(n4)CN(CCO)CC5)c3Cl)c2Cl)cnc1CN1CCC(CO)C1` (stereo not drawn) [Compound 33] came in with an IC50 in assay [1] of 0.00699 µM. For the same compound, at PD1/PD-L1, the “Maximum effect (induction fold)” value is 4.14 induction fold and the IC50 worked out at 0.0189 µM.
For `COc1nc(-c2cccc(-c3cccc(NC(=O)c4cc(C)c5c(n4)CN(CCO)CC5)c3Cl)c2Cl)cnc1CN[C@H]1C[C@](C)(O)C1` [Compound 34] the same measures were 0.0219 µM, 4.09 induction fold and 0.0447 µM.
Consider `COc1nc(-c2cccc(-c3cccc(NC(=O)c4cc(C)c5c(n4)CN(CCO)CC5)c3Cl)c2Cl)cnc1CN1CC(CO)C1` [Compound 35], for which the IC50 in assay [1] was 0.00518 µM. On PD1/PD-L1, the “Maximum effect (induction fold)” value turned out to be 4.44 induction fold and the IC50 was found to be 0.0175 µM.
As for `COc1nc(-c2cccc(-c3cccc(NC(=O)c4nc(C)c5c(n4)CN(CCO)CC5)c3Cl)c2Cl)cnc1CN1CC(O)C1` [Compound 36], the IC50 in assay [1] amounted to 0.0958 µM; on PD1/PD-L1, 0.0465 µM. Moreover, the “Maximum effect (induction fold)” value on PD1/PD-L1 was found to be 3.20 induction fold.
For `COc1nc(-c2cccc(-c3cccc(NC(=O)c4cc(C)c5c(n4)CN(CCO)CC5)c3Cl)c2Cl)cnc1CNCC1CCC(=O)N1` (stereo not drawn) [Compound 38] the same measures were 0.00886 µM, 0.0508 µM and 4.40 induction fold.
For `COc1nc(-c2cccc(-c3cccc(NC(=O)c4cc(C)c5c(n4)CN(CCO)CC5)c3Cl)c2Cl)cnc1CN1CC2(CC(O)C2)C1` [Compound 39], the figures for the IC50 (in assay [1]; on PD1/PD-L1) were 0.00552 µM and 0.0119 µM, respectively. Besides, at PD1/PD-L1, the “Maximum effect (induction fold)” value is reported as 4.62 induction fold.
On the same counts, the results for `COc1nc(-c2cccc(-c3cccc(NC(=O)c4cc(C)c5c(n4)CN(CCO)CC5)c3Cl)c2Cl)cnc1CN1CCCC1CO` (stereo not drawn) [Compound 40] are 0.0225 µM, 0.0461 µM and 3.72 induction fold.
On to `COc1cc(C(=O)Nc2cccc(-c3cccc(-c4cnc(CN5CC(O)C5)c(OC)n4)c3Cl)c2Cl)nc2c1CCN(CCO)C2` [Compound 41], for which the figures for the IC50 (in assay [1]; on PD1/PD-L1) were 0.00527 µM and 0.0292 µM, respectively. Also, the “Maximum effect (induction fold)” value on PD1/PD-L1 is on record as 3.50 induction fold.
With `COc1nc(-c2cccc(-c3cccc(NC(=O)c4cc(C#N)c5c(n4)CN(CCO)CC5)c3Cl)c2Cl)cnc1CN1CC(O)C1` [Compound 45], the figures for the IC50 (in assay [1]; at PD1/PD-L1) were 0.00781 µM and 0.0454 µM, respectively. Moreover, the “Maximum effect (induction fold)” value at PD1/PD-L1 is on record as 4.37 induction fold.
For `COc1nc(-c2cccc(-c3cccc(NC(=O)c4cc(C(F)(F)F)c5c(n4)CN(CCO)CC5)c3Cl)c2Cl)cnc1CN1CC(O)C1` [Compound 46] the same measures were 0.0226 µM, 0.571 µM and 5.56 induction fold.
On the same counts, the results for `COc1nc(-c2cccc(-c3cccc(NC(=O)c4cc(C)c5c(n4)CN(CCO)CC5)c3C#N)c2Cl)cnc1CN1CC(O)C1` [Compound 47] are 0.0372 µM, 0.052 µM and 4.01 induction fold.
In assay [1], `COc1nc(-c2cccc(-c3cccc(NC(=O)c4cc(OC(F)F)c5c(n4)CN(CCO)CC5)c3Cl)c2Cl)cnc1CN1CC(O)C1` [Compound 48] came in with an IC50 of 0.00893 µM. At PD1/PD-L1, the “Maximum effect (induction fold)” value is 3.80 induction fold and the IC50 was 0.0213 µM.
In assay [1], `COc1nc(-c2cccc(-c3cccc(NC(=O)c4cc(C)c5c(n4)CN(CCC(C)O)CC5)c3Cl)c2Cl)cnc1CN1CC(O)C1` (stereo not drawn) [Compound 49] returned an IC50 of 0.0338 µM. In addition, at PD1/PD-L1, the “Maximum effect (induction fold)” value worked out at 5.30 induction fold and the IC50 was determined as 0.175 µM.
In turn, `COc1nc(-c2cccc(-c3cccc(NC(=O)c4cc(OCc5cncc(C#N)c5)c5c(n4)CN(CCO)CC5)c3Cl)c2Cl)cnc1CN1CC(O)C1` [Compound 51] had an IC50 in assay [1] of 0.0258 µM. Also, at PD1/PD-L1, the “Maximum effect (induction fold)” value stood at 4.28 induction fold and the IC50 amounted to 0.0479 µM.
